Molecular target: T1, small-conductance Ca2+-activated K+ channels (SK channels, subtype 2) (Homo sapiens, UniProt Q9H2S1)
T1 construct: expressed in transfected cells; host or cells: HEK293
Assay: whole-cell patch-clamp of ionic current through SK2 channels in HEK293 cells (SC100)
Format: cell-based
Conditions: whole-cell patch-clamp, HEK293 cells expressing SK2 channels; concentration that increases the basal current by 100%
In short: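 SC100, the concentration doubling basal current (a 100% increase), was taken from SK2 currents recorded by whole-cell patch-clamp in SK2-expressing HEK293 cells.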

In the case of `Cc1ccn(-c2cc(CN(C)C)nc(NC3CCC(F)(F)CC3)n2)n1` [NSSy6783, N-(4,4-difluorocyclohexyl)-4-((dimethylamino)methyl)-6-(3-methyl-1H-pyrazol-1-yl)pyrimidin-2-amine], the “SC100 (μM)” value is reported as “++ (++ means 200 nM-1000 nM)”.
In the case of `Cc1ccn(-c2cc(CC#N)nc(NC3CCC(F)(F)CC3)n2)n1` [NSSy6800, 2-(2-((4,4-difluorocyclohexyl)amino)-6-(3-methyl-1H-pyrazol-1-yl)pyrimidin-4-yl)acetonitrile], the “SC100 (μM)” value is reported as “++ (++ means 200 nM-1000 nM)”.
For `Cc1ccn(-c2cc(CO)cc(N(C(N)=O)C3CCC(F)(F)CC3)n2)n1` [NSSy6812, 1-(4,4-difluorocyclohexyl)-1-(4-(hydroxymethyl)-6-(3-methyl-1H-pyrazol-1-yl)pyridin-2-yl) urea], the “SC100 (μM)” value was “+ (+ means >1 uM)”.
For `Cc1ccn(-c2cc(C(O)c3cnco3)cc(NC3CCC(F)(F)CC3)n2)n1` (stereo not drawn) [NSSy6846], the “SC100 (μM)” value was “+ (+ means >1 uM)”.
`Cc1cn(CCOc2cc(NC3CCC(F)(F)CC3)nc(-n3ccc(C)n3)c2)nn1` [NSSy6849] was tested, and the “SC100 (μM)” value was “++ (++ means 200 nM-1000 nM)”.
`COc1cc(NC2CCC(F)(F)CC2)nc(-n2ccc(C3CC3)n2)n1` [NSSy6850] was tested, and the “SC100 (μM)” value was “++ (++ means 200 nM-1000 nM)”.
`COCc1cc(NC2CCC(F)(F)CC2)nc(-n2nc(C)cc2C)c1` [NSSy6861, N-(4,4-difluorocyclohexyl)-6-(3,5-dimethyl-1H-pyrazol-1-yl)-4-(methoxymethyl)pyridin-2-amine] was tested, and the “SC100 (μM)” value was “++ (++ means 200 nM-1000 nM)”.
`COCc1cc(NC2CCC(F)(F)CC2)nc(-n2ccc(C3CC3)n2)n1` [NSSy6880] was tested, and the “SC100 (μM)” value was “++ (++ means 200 nM-1000 nM)”.
For `CC(O)c1cc(NC2CCC(F)(F)CC2)nc(-n2ccc(C3CC3)n2)n1` (stereo not drawn) [NSSy6881, 1-(2-(3-cyclopropyl-1H-pyrazol-1-yl)-6-((4,4-difluorocyclohexyl)amino)pyrimidin-4-yl) ethan-1-ol], the “SC100 (μM)” value was “+ (+ means >1 uM)”.
In the case of `COC(=O)N1CCC(c2cc(NC3CCC(F)(F)CC3)nc(-n3ccc(C)n3)c2)CC1` [NSSy6885], the “SC100 (μM)” value is reported as “+++ (+++ means <200 nM)”.
With `CC(=O)N1CCN(c2cc(-n3ccc(F)n3)nc(NC3CCC(F)(F)CC3)n2)CC1` [NSSy6886] the “SC100 (μM)” value was “+ (+ means >1 uM)”.
In the case of `Cc1ccn(-c2cc(C3CCN(C)CC3)cc(NC3CCC(F)(F)CC3)n2)n1` [NSSy6888], the “SC100 (μM)” value is reported as “+++ (+++ means <200 nM)”.
For `COc1cc(NC2CCC(F)(F)CC2)nc(-c2cccc(C)n2)n1` [NSSy6889], the “SC100 (μM)” value was “+ (+ means >1 uM)”.
In the case of `Cc1ccn(-c2cc(COC(N)=O)cc(NC3CCC(F)(F)CC3)n2)n1` [NSSy6891, (2-((4,4-difluorocyclohexyl)amino)-6-(3-methyl-1H-pyrazol-1-yl)pyridin-4-yl)methyl carbamate], the “SC100 (μM)” value is reported as “++ (++ means 200 nM-1000 nM)”.
With `Cc1ccn(-c2cc(C3CCNCC3)cc(NC3CCC(F)(F)CC3)n2)n1` [NSSy6897, N-(4,4-difluorocyclohexyl)-6-(3-methyl-1H-pyrazol-1-yl)-4-(piperidin-4-yl)pyridin-2-amine] the “SC100 (μM)” value was “++ (++ means 200 nM-1000 nM)”.
With `CC(=O)N1CCN(c2cc(-n3ccc(C4CC4)n3)nc(NC3CCC(F)(F)CC3)n2)CC1` [NSSy6909, 1-(4-(6-(3-cyclopropyl-1H-pyrazol-1-yl)-2-((4,4-difluorocyclohexyl)amino)pyrimidin-4-yl)piperazin-1-yl)ethan-1-one] the “SC100 (μM)” value was “++ (++ means 200 nM-1000 nM)”.
In the case of `CC(=O)N1CCC(c2cc(NC3CCC(F)(F)CC3)nc(-n3ccc(C)n3)c2)CC1` [NSSy6910], the “SC100 (μM)” value is reported as “+++ (+++ means <200 nM)”.
With `Cc1ccn(-c2cc(OC3CCS(=O)(=O)CC3)nc(NC3CCC(F)(F)CC3)n2)n1` [NSSy6913] the “SC100 (μM)” value was “++ (++ means 200 nM-1000 nM)”.
With `CC(=O)N1CCC(Oc2cc(-n3ccc(C)n3)nc(NC3CCC(F)(F)CC3)n2)CC1` [NSSy6914] the “SC100 (μM)” value was “+++ (+++ means <200 nM)”.
In the case of `CC(=O)N1CCN(c2cc(-n3ccc(CF)n3)nc(NC3CCC(F)(F)CC3)n2)CC1` [NSSy6917], the “SC100 (μM)” value is reported as “++ (++ means 200 nM-1000 nM)”.
With `COC(=O)N1CCN(c2cc(-n3ccc(C)n3)nc(NC3CCC(F)(F)CC3)n2)CC1` [NSSy6924, methyl 4-(2-((4,4-difluorocyclohexyl)amino)-6-(3-methyl-1H-pyrazol-1-yl)pyrimidin-4-yl)piperazine-1-carboxylate] the “SC100 (μM)” value was “++ (++ means 200 nM-1000 nM)”.
For `CC(=O)N1CCN(c2cc(-n3ccc(C(F)F)n3)nc(NC3CCC(F)(F)CC3)n2)CC1` [NSSy6930, 1-(4-(2-((4,4-difluorocyclohexyl)amino)-6-(3-(difluoromethyl)-1H-pyrazol-1-yl)pyrimidin-4-yl)piperazin-1-yl)ethan-1-one], the “SC100 (μM)” value was “++ (++ means 200 nM-1000 nM)”.
In the case of `CC(=O)N1CCN(c2cc(-n3ccc(CO)n3)nc(NC3CCC(F)(F)CC3)n2)CC1` [NSSy6931, 1-(4-(2-((4,4-difluorocyclohexyl)amino)-6-(3-(hydroxymethyl)-1H-pyrazol-1-yl)pyrimidin-4-yl)piperazin-1-yl)ethan-1-one], the “SC100 (μM)” value is reported as “+ (+ means >1 uM)”.
For `Cc1cc(NC2CCC(F)(F)CC2)nc(-n2ccc(C3CC3)n2)n1` [NSSy6935], the “SC100 (μM)” value was “++ (++ means 200 nM-1000 nM)”.
In the case of `COc1ccn(-c2cc(N3CCN(C(C)=O)CC3)nc(NC3CCC(F)(F)CC3)n2)n1` [NSSy6936], the “SC100 (μM)” value is reported as “+ (+ means >1 uM)”.
`FC1(F)CCC(Nc2ccnc(-n3ccc(C4CC4)n3)n2)CC1` [NSSy6941, 2-(3-cyclopropyl-1H-pyrazol-1-yl)-N-(4,4-difluorocyclohexyl)pyrimidin-4-amine] was tested, and the “SC100 (μM)” value was “+ (+ means >1 uM)”.
In the case of `FC1(F)CCC(Nc2nccc(-n3ccc(C4CC4)n3)n2)CC1` [NSSy6945, 4-(3-cyclopropyl-1H-pyrazol-1-yl)-N-(4,4-difluorocyclohexyl)pyrimidin-2-amine], the “SC100 (μM)” value is reported as “++ (++ means 200 nM-1000 nM)”.
`CC(=O)N1CCN(c2cc(-n3nccc3C3CC3)nc(NC3CCC(F)(F)CC3)n2)CC1` [NSSy6957, 1-(4-(6-(5-cyclopropyl-1H-pyrazol-1-yl)-2-((4,4-difluorocyclohexyl)amino)pyrimidin-4-yl)piperazin-1-yl)ethan-1-one] was tested, and the “SC100 (μM)” value was “+ (+ means >1 uM)”.
With `Cc1ccn(-c2cc(N3CCOC(C(C)(C)O)C3)nc(NC3CCC(F)(F)CC3)n2)n1` (stereo not drawn) [NSSy6958] the “SC100 (μM)” value was “++ (++ means 200 nM-1000 nM)”.
For `CC(=O)N1CCN(c2cc(-n3ccc(O)n3)nc(NC3CCC(F)(F)CC3)n2)CC1` [NSSy6972, 1-(4-(2-((4,4-difluorocyclohexyl)amino)-6-(3-hydroxy-1H-pyrazol-1-yl)pyrimidin-4-yl)piperazin-1-yl) ethan-1-one], the “SC100 (μM)” value was “+ (+ means >1 uM)”.
In the case of `COC(=O)N1CCC(c2cc(-n3ccc(C)n3)nc(NC3CCC(F)(F)CC3)n2)CC1` [NSSy6981, methyl 4-(2-((4,4-difluorocyclohexyl)amino)-6-(3-methyl-1H-pyrazol-1-yl)pyrimidin-4-yl)piperidine-1-carboxylate], the “SC100 (μM)” value is reported as “+++ (+++ means <200 nM)”.
In the case of `COC(=O)N1CCC(c2cc(NC3CCC(F)(F)CC3)nc(-n3ccc(C)n3)n2)CC1` [NSSy6982], the “SC100 (μM)” value is reported as “+++ (+++ means <200 nM)”.
For `Cc1ccn(-c2cc(N3CCOC(CO)C3)nc(NC3CCC(F)(F)CC3)n2)n1` (stereo not drawn) [NSSy6986, (4-(2-((4,4-difluorocyclohexyl)amino)-6-(3-methyl-1H-pyrazol-1-yl)pyrimidin-4-yl)morpholin-2-yl)methanol], the “SC100 (μM)” value was “++ (++ means 200 nM-1000 nM)”.
In the case of `CC(=O)N1CCN(c2cc(-c3cccc(C)n3)nc(NC3CCC(F)(F)CC3)n2)CC1` [NSSy6989, 1-(4-(2-((4,4-difluorocyclohexyl)amino)-6-(6-methylpyridin-2-yl)pyrimidin-4-yl)piperazin-1-yl)ethan-1-one], the “SC100 (μM)” value is reported as “+ (+ means >1 uM)”.
`COc1ccn(-c2nc(NC3CCC(F)(F)CC3)cc(N3CCOCC3)n2)n1` [NSSy6993] was tested, and the “SC100 (μM)” value was “++ (++ means 200 nM-1000 nM)”.
With `COc1ccn(-c2nc(C)cc(NC3CCC(F)(F)CC3)n2)n1` [NSSy6994, N-(4,4-difluorocyclohexyl)-2-(3-methoxy-1H-pyrazol-1-yl)-6-methylpyrimidin-4-amine] the “SC100 (μM)” value was “++ (++ means 200 nM-1000 nM)”.
For `Cc1nn(-c2nc(NC3CCC(F)(F)CC3)cc(N3CCOCC3)n2)c(C)c1F` [NSSy7011], the “SC100 (μM)” value was “++ (++ means 200 nM-1000 nM)”.
In the case of `Cc1cc(NC2CCC(F)(F)CC2)nc(-n2ccc(C3(C)CC3)n2)n1` [NSSy7012], the “SC100 (μM)” value is reported as “+ (+ means >1 uM)”.
`FC1(F)CCC(Nc2cc(N3CCOCC3)nc(-n3ccc(Br)n3)n2)CC1` [NSSy7021] was tested, and the “SC100 (μM)” value was “+++ (+++ means <200 nM)”.
In the case of `Cc1cc(NC2CCC(F)(F)CC2)nc(-n2ccc(O)n2)n1` [NSSy7027, 1-(4-((4,4-difluorocyclohexyl)amino)-6-methylpyrimidin-2-yl)-1H-pyrazol-3-ol], the “SC100 (μM)” value is reported as “+ (+ means >1 uM)”.
`Cc1cc(NC2CCC(F)(F)CC2)nc(-n2ccc(-c3ccccc3)n2)n1` [NSSy7028] was tested, and the “SC100 (μM)” value was “+ (+ means >1 uM)”.
`COc1cnc(-n2nc(C)cc2C)nc1NC1CCC(F)(F)CC1` [NSSy7031] was tested, and the “SC100 (μM)” value was “+ (+ means >1 uM)”.
With `FC1(F)CCC(Nc2cc(N3CCOCC3)nc(-n3ccc(-c4ccccc4)n3)n2)CC1` [NSSy7034] the “SC100 (μM)” value was “+ (+ means >1 uM)”.
In the case of `COc1cnc(-n2nc(C)c(F)c2C)nc1NC1CCC(F)(F)CC1` [NSSy7042], the “SC100 (μM)” value is reported as “+ (+ means >1 uM)”.
For `Cc1nc(NC2CCC(F)(F)CC2)nc(-n2ccc(C3CC3)n2)n1` [NSSy7043, 4-(3-cyclopropyl-1H-pyrazol-1-yl)-N-(4,4-difluorocyclohexyl)-6-methyl-1,3,5-triazin-2-amine], the “SC100 (μM)” value was “+ (+ means >1 uM)”.

Source: patent publication US10774064B2 (Cadent Therapeutics, Inc., priority 2016, dated 2020)
